Measurements taken from patent US20240239806A1, “COMPOUNDS, COMPOSITIONS AND METHODS OF TREATING DISORDERS” (Chengdu Anticancer Bioscience, Ltd., priority 2021, published 2024).

Assays:
Format in all cases: cell-based
A549 [1] = assay: MECP in cancer cell line; settings: Homo sapiens
Summary of the method: (§1)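 Cancer lines were grown in DMEM with 5% FBS, 2 mM L-glutamine and 1 mM sodium pyruvate at 37 °C, 5% CO2, then exposed to compound from 1 nM to 30 μM. High-content imaging at 24, 48 or 72 h scored mitotic arrest or DNA-content change; values binned A–D.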

SW480 [2] = assay: MECP in cancer cell line; settings: Homo sapiens
Summary of the method: as §1

NCI-N87 [3] = assay: MECP in cancer cell line; settings: Homo sapiens
Summary of the method: as §1

A549 [4] = assay: MTT assay of cellular proliferation; settings: Homo sapiens, 50% inhibition of cellular proliferation
Summary of the method: (§2)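 Compound dosing: 1 nM to 30 μM on subconfluent (20-30%) cultures in DMEM, 5% FBS. Readout was MTT reduction over 3-4 h, formazan at A570; EC50 derived.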

Calu-6 = assay: MTT assay of cellular proliferation; settings: Homo sapiens; Calu-6, MTT, 50% inhibition of cellular proliferation
Summary of the method: as §2

DU145 = assay: MTT assay of cellular proliferation; settings: Homo sapiens, DU-145, 50% inhibition of cellular proliferation
Summary of the method: as §2

NCI-H2170 = assay: MTT assay of cellular proliferation; settings: Homo sapiens, 50% inhibition of cellular proliferation
Summary of the method: as §2

NCI-N87 [5] = assay: MTT assay of cellular proliferation; settings: Homo sapiens, 50% inhibition of cellular proliferation
Summary of the method: as §2

SW480 [6] = assay: MTT assay of cellular proliferation; settings: Homo sapiens, 50% inhibition of cellular proliferation
Summary of the method: as §2

Structure (SMILES) | minimal effective concentration (A549 [1]) [µM] | minimal effective concentration (SW480 [2]) [µM] | minimal effective concentration (NCI-N87 [3]) [µM] | EC50 (A549 [4]) [µM] | EC50 (Calu-6) [µM] | EC50 (DU145) [µM] | EC50 (NCI-H2170) [µM] | EC50 (NCI-N87 [5]) [µM] | EC50 (SW480 [6]) [µM]
COC(=O)c1cc(OC)cc(Oc2ncnc3ccsc23)c1 [Compound 37, methyl 3-methoxy-5-(thieno[3,2-d]pyrimidin-4-yloxy)benzoate] | 1 to 10 | 0.001 to 1 | 0.001 to 1 | > 30 | 0.001 to 1 | 0.001 to 1 | 0.001 to 1 | 0.001 to 1 | 0.001 to 1
COC(=O)c1cc(OC)cc(Oc2ncnc3cc(OC)c(OC)cc23)c1 [Compound 29] | 1 to 10 | 1 to 10 | 0.001 to 1 | > 30 | 0.001 to 1 | 0.001 to 1 | 0.001 to 1 | 0.001 to 1 | 1 to 10
COC(=O)c1cc(OC)cc(Oc2ncnc3cc[nH]c23)c1 [Compound 34, methyl 3-((5H-pyrrolo[3,2-d]pyrimidin-4-yl)oxy)-5-methoxybenzoate] | 1 to 10 | 0.001 to 1 | 0.001 to 1 | > 30 | 0.001 to 1 | 0.001 to 1 | 0.001 to 1 | 0.001 to 1 | 1 to 10
COC(=O)c1cc(Oc2ncnc3cc[nH]c23)cc(C(=O)OC)c1 [Compound 36, dimethyl 5-((5H-pyrrolo[3,2-d]pyrimidin-4-yl)oxy)isophthalate] | 1 to 10 |  | 0.001 to 1 | > 30 | 0.001 to 1 | 0.001 to 1 | 0.001 to 1 | 0.001 to 1 | 
COC(=O)c1cc(Oc2ncnc3ccsc23)cc(C(=O)OC)c1 [Compound 39, dimethyl 5-(thieno[3,2-d]pyrimidin-4-yloxy)isophthalate] | 1 to 10 |  | 0.001 to 1 | > 30 | 0.001 to 1 | 0.001 to 1 | 1 to 10 | 0.001 to 1 | 
